According to PubChem BioAssay (NCI):
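Grown in 96-well plates, cells were treated for 48 hours with each compound at five concentrations. Insufficient inhibition: endpoint recorded as highest concentration tested. Here, GI50 denotes the concentration required for 50% inhibition of growth. At the TGI there is no net growth.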

Experiments:
Test in all cases: NCI-60 cell line screen, 48 h; in the data active = GI50 below about 0.43 µM; inactive = the rest
TK-10 renal = tested on: TK-10 renal
HT29 colon = tested on: HT29 colon
MDA-MB-231 breast = tested on: MDA-MB-231 breast
SK-OV-3 ovarian = tested on: SK-OV-3 ovarian
SW-620 colon = tested on: SW-620 colon
UACC-62 melanoma = tested on: UACC-62 melanoma
A549 NSCLC = tested on: A549 NSCLC
EKVX NSCLC = tested on: EKVX NSCLC
SK-MEL-28 melanoma = tested on: SK-MEL-28 melanoma
NCI-H522 lung = tested on: NCI-H522 lung
SN12C renal = tested on: SN12C renal
SNB-75 CNS = tested on: SNB-75 CNS
ACHN renal = tested on: ACHN renal
OVCAR-4 ovarian = tested on: OVCAR-4 ovarian
NCI/ADR-RES ovarian = tested on: NCI/ADR-RES ovarian
MCF7 breast = tested on: MCF7 breast
LOX IMVI melanoma = tested on: LOX IMVI melanoma
786-0 renal = tested on: 786-0 renal
BT-549 breast = tested on: BT-549 breast
HOP-92 NSCLC = tested on: HOP-92 NSCLC
SF-539 CNS = tested on: SF-539 CNS
M14 melanoma = tested on: M14 melanoma
U251 CNS = tested on: U251 CNS
PC-3 prostate = tested on: PC-3 prostate
HL-60(TB) leukemia = tested on: HL-60(TB) leukemia
OVCAR-5 ovarian = tested on: OVCAR-5 ovarian
IGROV1 ovarian = tested on: IGROV1 ovarian
SNB-19 CNS = tested on: SNB-19 CNS
CAKI-1 renal = tested on: CAKI-1 renal
OVCAR-3 ovarian = tested on: OVCAR-3 ovarian
RPMI-8226 leukemia = tested on: RPMI-8226 leukemia
A498 renal = tested on: A498 renal
RXF 393 renal = tested on: RXF 393 renal
HCC-2998 colon = tested on: HCC-2998 colon
HCT-15 colon = tested on: HCT-15 colon
NCI-H23 lung = tested on: NCI-H23 lung
KM12 colon = tested on: KM12 colon
HS 578T breast = tested on: HS 578T breast
DU-145 prostate = tested on: DU-145 prostate
UO-31 renal = tested on: UO-31 renal
COLO 205 colon = tested on: COLO 205 colon
OVCAR-8 ovarian = tested on: OVCAR-8 ovarian
K-562 leukemia = tested on: K-562 leukemia
MOLT-4 leukemia = tested on: MOLT-4 leukemia
SK-MEL-2 melanoma = tested on: SK-MEL-2 melanoma
SK-MEL-5 melanoma = tested on: SK-MEL-5 melanoma
NCI-H460 lung = tested on: NCI-H460 lung
HOP-62 NSCLC = tested on: HOP-62 NSCLC
MDA-MB-435 = tested on: MDA-MB-435
SF-295 CNS = tested on: SF-295 CNS
SF-268 CNS = tested on: SF-268 CNS
SR leukemia = tested on: SR leukemia
UACC-257 melanoma = tested on: UACC-257 melanoma
HCT-116 colon = tested on: HCT-116 colon
CCRF-CEM leukemia = tested on: CCRF-CEM leukemia
MALME-3M melanoma = tested on: MALME-3M melanoma
NCI-H226 lung = tested on: NCI-H226 lung
T-47D breast = tested on: T-47D breast

C=C1C[C@@H]2CC[C@@]34C[C@H]5O[C@H]6[C@@H](O3)[C@H]3O[C@H](CC[C@@H]3O[C@H]6[C@@H]5O4)CC(=O)C[C@@H]3[C@@H](OC)[C@@H](C[C@H](O)CN)O[C@H]3C[C@H]3O[C@@H](CC[C@@H]1O2)C[C@@H](C)C3=C
1.11 µM: TGI (SK-MEL-5 melanoma)
0.0219 µM: TGI (OVCAR-3 ovarian)
0.99 µM: TGI (LOX IMVI melanoma)
< 0.01 µM: TGI (MDA-MB-435)
11.8 µM: TGI (NCI-H522 lung)
> 81.9 µM: TGI (M14 melanoma)
active: GI50 (HT29 colon) < 0.01 µM | GI50 (MDA-MB-231 breast) < 0.01 µM | GI50 (SW-620 colon) < 0.01 µM | GI50 (UACC-62 melanoma) < 0.01 µM | GI50 (A549 NSCLC) < 0.01 µM | GI50 (EKVX NSCLC) < 0.01 µM | GI50 (NCI-H522 lung) < 0.01 µM | GI50 (SN12C renal) < 0.01 µM | GI50 (SNB-75 CNS) < 0.01 µM | GI50 (ACHN renal) 0.158 µM | GI50 (MCF7 breast) < 0.01 µM | GI50 (LOX IMVI melanoma) < 0.01 µM | GI50 (786-0 renal) 0.0761 µM | GI50 (BT-549 breast) < 0.0167 µM | GI50 (HOP-92 NSCLC) 0.0734 µM | GI50 (SF-539 CNS) < 0.01 µM | GI50 (M14 melanoma) < 0.0106 µM | GI50 (U251 CNS) < 0.01 µM | GI50 (PC-3 prostate) < 0.01 µM | GI50 (HL-60(TB) leukemia) < 0.01 µM | GI50 (OVCAR-5 ovarian) < 0.01 µM | GI50 (IGROV1 ovarian) < 0.01 µM | GI50 (SNB-19 CNS) < 0.01 µM | GI50 (CAKI-1 renal) 0.0358 µM | GI50 (OVCAR-3 ovarian) < 0.01 µM | GI50 (RPMI-8226 leukemia) < 0.01 µM | GI50 (A498 renal) < 0.0119 µM | GI50 (RXF 393 renal) < 0.01 µM | GI50 (HCC-2998 colon) < 0.01 µM | GI50 (HCT-15 colon) 0.326 µM | GI50 (NCI-H23 lung) < 0.01 µM | GI50 (KM12 colon) < 0.01 µM | GI50 (HS 578T breast) < 0.01 µM | GI50 (DU-145 prostate) < 0.01 µM | GI50 (COLO 205 colon) < 0.01 µM | GI50 (OVCAR-8 ovarian) < 0.0153 µM | GI50 (K-562 leukemia) < 0.01 µM | GI50 (MOLT-4 leukemia) < 0.01 µM | GI50 (SK-MEL-2 melanoma) < 0.01 µM | GI50 (SK-MEL-5 melanoma) < 0.0135 µM | GI50 (NCI-H460 lung) < 0.01 µM | GI50 (HOP-62 NSCLC) < 0.0115 µM | GI50 (MDA-MB-435) < 0.01 µM | GI50 (SF-295 CNS) < 0.01 µM | GI50 (SF-268 CNS) 0.304 µM | GI50 (SR leukemia) < 0.01 µM | GI50 (HCT-116 colon) < 0.01 µM | GI50 (CCRF-CEM leukemia) < 0.01 µM
inactive: GI50 (TK-10 renal) 13.9 µM | GI50 (OVCAR-4 ovarian) 1.03 µM | GI50 (NCI/ADR-RES ovarian) 2.69 µM | GI50 (UO-31 renal) 1.34 µM | GI50 (UACC-257 melanoma) > 65.8 µM
0.0166 µM: TGI (SF-539 CNS)
> 100 µM: TGI (TK-10 renal) | TGI (HT29 colon) | TGI (SK-OV-3 ovarian) | TGI (SW-620 colon) | TGI (UACC-62 melanoma) | TGI (A549 NSCLC) | TGI (EKVX NSCLC) | TGI (SK-MEL-28 melanoma) | TGI (SN12C renal) | TGI (SNB-75 CNS) | TGI (ACHN renal) | TGI (OVCAR-4 ovarian) | TGI (NCI/ADR-RES ovarian) | TGI (MCF7 breast) | TGI (786-0 renal) | TGI (U251 CNS) | TGI (OVCAR-5 ovarian) | TGI (IGROV1 ovarian) | TGI (SNB-19 CNS) | TGI (CAKI-1 renal) | TGI (RXF 393 renal) | TGI (HCC-2998 colon) | TGI (HCT-15 colon) | TGI (NCI-H23 lung) | TGI (KM12 colon) | TGI (HS 578T breast) | TGI (DU-145 prostate) | TGI (UO-31 renal) | TGI (OVCAR-8 ovarian) | TGI (K-562 leukemia) | TGI (MOLT-4 leukemia) | TGI (SK-MEL-2 melanoma) | TGI (NCI-H460 lung) | TGI (HOP-62 NSCLC) | TGI (SF-268 CNS) | TGI (SR leukemia) | TGI (UACC-257 melanoma) | TGI (HCT-116 colon) | TGI (CCRF-CEM leukemia)
0.0456 µM: TGI (A498 renal)
79.4 µM: TGI (HOP-92 NSCLC)
> 53.5 µM: TGI (MDA-MB-231 breast)
> 37.5 µM: TGI (BT-549 breast)
< 0.0145 µM: TGI (HL-60(TB) leukemia)
0.0652 µM: TGI (COLO 205 colon)
0.839 µM: TGI (SF-295 CNS)

O=c1cc(N2CCCC2)[nH]c(=O)n1-c1ccccc1
> 100 µM: TGI (TK-10 renal) | TGI (HT29 colon) | TGI (MDA-MB-231 breast) | TGI (SW-620 colon) | TGI (A549 NSCLC) | TGI (EKVX NSCLC) | TGI (SK-MEL-28 melanoma) | TGI (NCI-H522 lung) | TGI (SN12C renal) | TGI (SNB-75 CNS) | TGI (ACHN renal) | TGI (OVCAR-4 ovarian) | TGI (NCI/ADR-RES ovarian) | TGI (MCF7 breast) | TGI (LOX IMVI melanoma) | TGI (786-0 renal) | TGI (BT-549 breast) | TGI (HOP-92 NSCLC) | TGI (SF-539 CNS) | TGI (M14 melanoma) | TGI (U251 CNS) | TGI (PC-3 prostate) | TGI (HL-60(TB) leukemia) | TGI (OVCAR-5 ovarian) | TGI (IGROV1 ovarian) | TGI (SNB-19 CNS) | TGI (CAKI-1 renal) | TGI (RPMI-8226 leukemia) | TGI (MALME-3M melanoma) | TGI (HCC-2998 colon) | TGI (HCT-15 colon) | TGI (NCI-H23 lung) | TGI (KM12 colon) | TGI (NCI-H226 lung) | TGI (DU-145 prostate) | TGI (COLO 205 colon) | TGI (OVCAR-8 ovarian) | TGI (K-562 leukemia) | TGI (MOLT-4 leukemia) | TGI (SK-MEL-2 melanoma) | TGI (SK-MEL-5 melanoma) | TGI (NCI-H460 lung) | TGI (HOP-62 NSCLC) | TGI (MDA-MB-435) | TGI (SF-295 CNS) | TGI (SR leukemia) | TGI (UACC-257 melanoma) | TGI (HCT-116 colon) | TGI (CCRF-CEM leukemia)

C=C1C(O)CC[C@]2(C)C1C1OC(C)(C)O[C@]13CC(=O)C(C)=C([C@H]1OC(C)(C)OC12)C3(C)C (some centres not stated)
> 100 µM: TGI (TK-10 renal) | TGI (HT29 colon) | TGI (MDA-MB-231 breast) | TGI (SK-OV-3 ovarian) | TGI (SW-620 colon) | TGI (UACC-62 melanoma) | TGI (A549 NSCLC) | TGI (T-47D breast) | TGI (EKVX NSCLC) | TGI (SK-MEL-28 melanoma) | TGI (SN12C renal) | TGI (SNB-75 CNS) | TGI (ACHN renal) | TGI (OVCAR-4 ovarian) | TGI (NCI/ADR-RES ovarian) | TGI (MCF7 breast) | TGI (LOX IMVI melanoma) | TGI (786-0 renal) | TGI (BT-549 breast) | TGI (SF-539 CNS) | TGI (U251 CNS) | TGI (HL-60(TB) leukemia) | TGI (OVCAR-5 ovarian) | TGI (IGROV1 ovarian) | TGI (SNB-19 CNS) | TGI (CAKI-1 renal) | TGI (OVCAR-3 ovarian) | TGI (RPMI-8226 leukemia) | TGI (A498 renal) | TGI (RXF 393 renal) | TGI (MALME-3M melanoma) | TGI (HCC-2998 colon) | TGI (HCT-15 colon) | TGI (NCI-H23 lung) | TGI (KM12 colon) | TGI (NCI-H226 lung) | TGI (DU-145 prostate) | TGI (UO-31 renal) | TGI (COLO 205 colon) | TGI (OVCAR-8 ovarian) | TGI (K-562 leukemia) | TGI (MOLT-4 leukemia) | TGI (SK-MEL-5 melanoma) | TGI (NCI-H460 lung) | TGI (HOP-62 NSCLC) | TGI (MDA-MB-435) | TGI (SF-295 CNS) | TGI (SF-268 CNS) | TGI (SR leukemia) | TGI (UACC-257 melanoma) | TGI (HCT-116 colon) | TGI (CCRF-CEM leukemia)
